Values of other authors as cited in paper PMC9494641 (ACS Omega, 2022).
Blank lines part the entries; values can stand above or below the molecule they belong to.

What was measured:
JAK2 = JAK2 (Homo sapiens, UniProt O60674); conditions: read-out: Kd JAK2
JAK1 = conditions: read-out: IC50 JAK1
[1] = tested on: JAK2 expressing SET-2 cell line

Chain of JAK2 (O60674 808-1132 limits assumed): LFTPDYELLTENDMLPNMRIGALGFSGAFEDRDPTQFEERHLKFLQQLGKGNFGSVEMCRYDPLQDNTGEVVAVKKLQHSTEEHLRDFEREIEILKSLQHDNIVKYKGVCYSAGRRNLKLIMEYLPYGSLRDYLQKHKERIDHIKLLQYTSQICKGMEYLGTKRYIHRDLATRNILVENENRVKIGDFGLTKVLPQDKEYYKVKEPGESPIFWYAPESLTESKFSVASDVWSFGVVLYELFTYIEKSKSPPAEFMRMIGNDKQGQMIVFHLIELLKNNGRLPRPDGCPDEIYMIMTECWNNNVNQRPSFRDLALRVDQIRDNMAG

Kd (JAK2): 6.6 µM
Compound: CCN(CC)CCC(CNc1ccnc2cc(Cl)ccc12)c1ccc(O)cc1 (stereo not drawn) [NSC13626]

IC50 [1]: < 3 nM
Compound: Cc1cc(Nc2nc(N[C@@H](C)c3ccc(F)cc3)c(C#N)cc2F)[nH]n1 [AZ960]
